Read-outs that look alike come from different tables or passages of the source.
Experiments:
[1] = test system: advanced gastrointestinal cancer; conditions: cited from earlier work
[2] = cited from earlier work
[3] = test system: advanced malignant melanoma; conditions: fifteen patients, 90-360 mg/m^2 every 2 weeks; cited from earlier work
[4] = doses of 20 to 30 mg/m^2; cited from earlier work
A2780/DX5 cells = test: Sulforhodamine B (SRB) cytotoxicity assay in A2780/DX5 cells; assay type: cell-based; conditions: for IC50 Ratio: A2780/DX5 versus A2780/WT; for IC50: Homo sapiens, A2780, read-out: A2780/DX5
Experimental: (§1) Each of the testing conditions used in this study in both A2780/WT (wild-type) and A2780/DX5 cells were repeated in five to fifteen experiments that were performed on separate days. Each experiment consisted of one microtiter plate with at least eight individual assays of a given drug treatment condition on the plate. The sulforhodamine B (SRB) assay was used to assess cytotoxicity and absorbance at 570 nm (A570) in order to calculate the percentage of cell control (or percent cell survival) for the various treatment conditions in the plate wells.
(§2) Roswell Park Memorial Institute (RPMI 1640) medium, fetal bovine serum (FBS), and L-glutamine were purchased from Gibco BRL. Drugs were dissolved in sterile dimethylsulfoxide (DMSO), from American Type Culture Collection (ATCC) for stock solutions (2.5 to 5.0 mM). Subsequent dilutions were made using cell culture medium (prior to adding the drug to cells). SRB was purchased from Sigma and dissolved in 1.0 percent acetic acid. Trichloroacetic acid was purchased from VWR International.
(§3) Cells were manipulated in a Class IIA/B3 Biological Safety Cabinet (Forma Scientific) and maintained at 37° C. in a humidified atmosphere containing 5% CO2 in a water-jacketed cell culture incubator (Forma Scientific). Cells were counted using a Coulter-Z1 counter (Beckman-Coulter). Following drug treatment, plates were washed using a Biomek 2000 station (Beckman) and, following exposure to SRB dye, plates were washed using an automated plate washer (Model EL404, Bio-Tek Instruments). Percentage of control was correlated to A570 values and determined using a Model EL800 plate reader (Bio-Tek Instruments).
(§4) Population doubling times for the two cell lines used in this study encompassed a total of five cell doublings corresponding to approximately 5 days for A2780/WT and A2780/DX5 cells. A2780/WT and A2780/DX5 cells were cultured in RPMI 1640 medium supplemented with 10% fetal bovine serum and 1 mM of L-glutamine. Both cell lines were maintained as monolayered cultures in T-25 or T-75 flasks and then seeded to microtiter plate wells for experiments described herein. Prior to SRB assays, cell viability was monitored by evaluation of microtiter plate wells. Dead cells detach and float while living cells remain attached to the bottom of the cell well.
The sulforhodamine B (SRB) cytotoxicity assay (see, Skehan P, et al., New colorimetric cytotoxicity assay for anticancer-drug screening. J. Natl. Cancer Inst. 82:1107-1112 (1990)) was used to determine the cytotoxic effects of BNP1350, SN-38, topotecan, 9-NH2-CPT, and 9-NO2-CPT on cell growth in vitro. Briefly, after the medium was aspirated from individual plate wells, trichloroacetic acid (100 μL of 10.0% solution) was added to each well, and the plates were incubated at 4° C. for at least 1 hour. The plates were washed five-times with water using an automated microplate washer (Model EL 404, Bio-Tek Instruments), SRB solution (100 μL of 0.4 grams SRB dissolved in 100 mL 1.0 percent acetic acid) was added, and plates remained at room temperature for 15 minutes. The plates were then washed five-times using acetic acid (1.0%), air dried, and bound dye was solubilized in Tris base (150 μL, 10 mM). Plates were agitated (gently) for 5 minutes and the absorbance values of the SRB dye-protein adduct at a 570 nm wavelength (A570) were determined using an automated microtiter plate reader equipped with an A570 filter (Model EL800, BioTek Instruments).

[5] = test system: A2780/WT (wild-type) cells; test: Sulforhodamine B (SRB) cytotoxicity assay in A2780/WT cells; assay type: cell-based; conditions: Homo sapiens
Experimental: as §1, §2, §3
as §4, with “Dead cells detach and float while living cells remain attached to the bottom of the cell well.” left out
The sulforhodamine B (SRB) cytotoxicity assay (see, Skehan P, et al., New colorimetric cytotoxicity assay for anticancer-drug screening. J. Natl. Cancer Inst. 82:1107-1112 (1990)) was used to determine the cytotoxic effects of BNP1350, SN-38, topotecan, 9-NH2-CPT, and 9-NO2-CPT on cell growth in vitro. […] Plates were agitated (gently) for 5 minutes and the absorbance values of the SRB dye-protein adduct at a 570 nm wavelength (A570) were determined using an automated microtiter plate reader equipped with an A570 filter (Model EL800, BioTek Instruments).

[6] = carboxylate form versus lactone form; cited from earlier work
[7] = clinical studies in Japan; cited from earlier work
human plasma proteins = test: Percent of free camptothecin analogs in human plasma (dialysis, HPLC); conditions: 100 nM compound concentrations
Experimental: Stocks of various camptothecin analogs were prepared in DMSO. Phosphate buffer was prepared from analytical grade reagents and regenerated cellulose membranes with 12-14 kD molecular weight cut-off (MWCO) were purchased from Spectrum Laboratories. Samples were incubated 48 hours or longer at room temperature until equilibrium was reached. Experiments to determine the percent of free camptothecin/Karenitecin® analogs were performed in triplicate. Optimum HPLC detection conditions for each camptothecin/Karenitecin® analog were developed using traditional HPLC methods.

[8] = test system: panel of over 20 human cancer cell lines
[9] = 5-day course (27 patients total), 4 wks
[10] = 5-day course (27 patients total), 8 wks
[11] = 5-day course (27 patients total), 12 wks
[12] = single-dose method (34 patients total), 3 wks
[13] = single-dose method (34 patients total), 6 wks
[14] = single-dose method (34 patients total), 9 wks
[15] = single-dose method (34 patients total), 12 wks
[16] = 5-day course, 15 mg/m^2 × 5, 9 patients treated
[17] = 5-day course, 17 mg/m^2 × 5, 5 patients treated
[18] = 5-day course, 20 mg/m^2 × 5, 10 patients treated
[19] = single-dose method, 110 mg/m^2, 2 patients treated
[20] = single-dose method, 120 mg/m^2, 7 patients treated
[21] = single-dose method, 180 mg/m^2, 9 patients treated

CC[C@@]1(O)C(=O)OCc2c1cc1n(c2=O)Cc2cc3ccccc3nc2-1 [CPT sodium]
Objective results: Improved [1, 9]: 1 patients
Objective results: Stable [1, 9]: 12 patients
Objective results: Worse [1, 9]: 14 patients
Objective results: Stable [1, 10]: 7 patients
Objective results: Worse [1, 10]: 20 patients
Objective results: Stable [1, 11]: 6 patients
Objective results: Worse [1, 11]: 21 patients
patients with evidence of partial objective improvement ([1]; after 2 months (8 or 9 weeks), 61 patients): two of their 61 patients
Objective results: Improved ([1]; single-dose method (34 patients total), 3 wks after start of therapy): 4 patients
Objective results: Stable [1, 12]: 17 patients
Objective results: Worse [1, 12]: 13 patients
Objective results: Improved [1, 13]: 2 patients
Objective results: Stable [1, 13]: 11 patients
Objective results: Worse [1, 13]: 21 patients
Objective results: Improved [1, 14]: 2 patients
Objective results: Stable [1, 14]: 8 patients
Objective results: Worse [1, 14]: 24 patients
Objective results: Stable [1, 15]: 6 patients
Objective results: Worse [1, 15]: 28 patients
Cystitis ([2]; 5-day course (P < 0.05)): 48 (P < 0.05) % of 27 Patients
Number of patients with cystitis ([2]; 5-day course, 11 mg/m^2 × 5, 2 patients treated): 1 patients
Number of patients with cystitis [2, 16]: 4 patients
Number of patients with diarrhea [2, 16]: 1 patients
Number of patients with cystitis [2, 17]: 2 patients
Number of patients with diarrhea [2, 17]: 4 patients
Number of patients with cystitis [2, 18]: 6 patients
Number of patients with diarrhea [2, 18]: 4 patients
Number of patients with diarrhea ([2]; 5-day course, 22 mg/m^2 × 5, 1 patient treated): 1 patients
Number of patients with cystitis ([2]; single-dose method, 100 mg/m^2, 6 patients treated): 2 patients
Number of patients with cystitis [2, 19]: 1 patients
Number of patients with diarrhea [2, 19]: 1 patients
Number of patients with cystitis [2, 20]: 2 patients
Number of patients with diarrhea [2, 20]: 4 patients
Number of patients with cystitis [2, 21]: 3 patients
Number of patients with diarrhea [2, 21]: 2 patients
less pronounced transient tumor regression [3]: three patients
myelosuppression [3]: 11 patients
patients with a 50% or greater decrease in tumor diameter [3]: None of the patients
dose-limiting bladder toxicity [4]: three patients

CC[C@@]1(O)C(=O)OCc2c1cc1n(c2=O)Cc2c-1nc1ccccc1c2CC[Si](C)(C)CCCOC(=O)C1CCC1 [Compound 62, Cyclobutanecarboxylic acid 3-{[2-(4-ethyl-4-hydroxy-3,13-dioxo-3,4,12,13-tetrahydro-1H-2-oxa-6,12a-diaza-dibenzo[b,h]fluoren-11-yl)-ethyl]-dimethyl-silanyl}-propyl ester]
IC50 Ratio (A2780/DX5 cells): 3.77
IC50 (A2780/DX5 cells): 39.2 nM
IC50 ([5]; A2780, read-out: A2780/WT): 10.4 nM

CC[C@@]1(O)C(=O)OCc2c1cc1n(c2=O)Cc2c-1nc1ccccc1c2CC[Si](C)(C)CSC(C)=O [Compound 9, thioacetic acid S-({[2-(4-ethyl-4-hydroxy-3,13-dioxo-3,4,12,13-tetrahydro-1H-2-oxa-6,12a-diaza-dibenzo[b,h]fluoren-11-yl)-ethyl]-dimethylsilanyl}-methyl)ester]
IC50 Ratio (A2780/DX5 cells): 1.94
IC50 (A2780/DX5 cells): 125 nM
IC50 ([5]; A2780, read-out: A2780/WT): 64.7 nM

CC[C@@]1(O)C(=O)OCc2c1cc1n(c2=O)Cc2c-1nc1ccccc1c2CC[Si](C)(C)CCCOC(=O)C1=CCNO1 [Compound 64, 2,3-Dihydro-isoxazole-5-carboxylic acid 3-{[2-(4-ethyl-4-hydroxy-3,13-dioxo-3,4,12,13-tetrahydro-1H-2-oxa-6,12a-diaza-dibenzo[b,h]fluoren-11-yl)-ethyl]-dimethyl-silanyl}-propyl ester]
IC50 Ratio (A2780/DX5 cells): 4.27
IC50 (A2780/DX5 cells): 59.8 nM
IC50 ([5]; A2780, read-out: A2780/WT): 14 nM

CC[C@@](O)(C(=O)O)c1cc2n(c(=O)c1CO)Cc1cc3ccccc3nc1-2 [carboxylate form of CPT]
reduction of anti-tumor activity [6]: at least 10 fold

CCc1c2c(nc3ccc(OC(=O)N4CCC(N5CCCCC5)CC4)cc13)-c1cc3c(c(=O)n1C2)COC(=O)[C@]3(O)CC [CPT-11, 7-ethyl-10-[4-(1-piperidino)-1-piperidino]carbonyloxy camptothecin]
patient deaths directly attributable to drug toxicity [7]: approximately 100 patient deaths

C=C[Si](C)(C)CCc1c2c(nc3ccccc13)-c1cc3c(c(=O)n1C2)COC(=O)[C@]3(O)CC [Compound 1, 11-(4S)-[2-(dimethylvinylsilanyl)-ethyl]-4-ethyl-4-hydroxy-1,12-dihydro-4H-2-oxa-6,12a-diaza-dibenzo[b,h]fluorene-3,13-dione]
IC50 Ratio (A2780/DX5 cells): 1.68
IC50 (A2780/DX5 cells): 21.8 nM
Percent of Free Camptothecin Analogs in Human Plasma (human plasma proteins): 2%
IC50 ([5]; SRB assay, A2780/WT cells, read-out: A2780/WT): 13 nM

CC[C@@]1(O)C(=O)OCc2c1cc1n(c2=O)Cc2c-1nc1ccccc1c2CC[Si](C)(C)C [Karenitecin, (4S)-4-ethyl-4-hydroxy-11-[2-(trimethylsilyl)ethyl]-1H-pyrano[3′:4′:6,7]indolizino[1,2-b]quinoline-3,14(4H,12H)-dione]
antitumor potency compared with Topotecan and SN-38 [8]: significantly more potent antitumor agent than either Topotecan™ or SN-38

Source: patent publication US7687496B2, “C7-substituted camptothecin analogs” (priority 2007, dated 2010)
